Measurements as given in patent publication US5545618A, “GLP-1 analogs useful for diabetes treatment” (priority 1993, dated 1996).
Read-outs that look alike come from different tables or passages of the source. Where no end group is shown, it is not given here.

Columns and labels:
[1] = degradation in plasma by RP-HPLC; assay type: in vitro ADME; conditions: incubation in plasma for 60 minutes; also: key: +: degradation was not observed; -: was complete after this time
Experimental: In this assay, the analog is added to plasma for various times and recovered similarly to the method described above for radiolabel sequencing analysis. Specifically, the analog at a concentration of 100 nM in RIA buffer is spiked into 1 mL plasma to a final concentration of 1 nM and after incubation in 37° C. circulating water bath for various preset times, the reaction is stopped by bringing the plasma to 0.1% (w/v) in bacitracin.
The peptides are then purified by Sep-Pak extraction as described above. The eluates are concentrated to about 1 mL on a Speed-vac, diluted with 1 mL distilled water, frozen at 80° C. and lyophilized overnight. The powder is resuspended in 0.5 mL Buffer C (0.1% TFA in water) per mL starting plasma and 0.25 mL are injected on a Hewlett-Packard 109OL liquid chromatograph using an Alltech C18 column (0.45×25 cm; 10 μm particle size) with a Brownlee 2 cm C18 guard column. The extraction is monitored at OD214 throughout the run and the solvent flow rate was 1 mL/minute. A gradient between Buffer C and Buffer D (0.1% TFA in acetonitrile) is set up over a 40 minute run time. The gradient starts at 35% D is held for the first 2 minutes after injection and then increased to 42% D over 24 minutes. The gradient is then increased to 60% D over the next two minutes, held at this level for 2 minutes and returned to 35% D over the next 2 minutes. The % D remains at 35% for the remaining 8 minutes of the run. Fractions are collected at 0.5 minute intervals for the first 30 minutes of each run and dried in a Speed-vac.

RIN 1046-38 cells = tested on: RIN 1046-38 cells
Experimental: An additional test for potency of the compounds of the invention measures their ability to stimulate cAMP production in RIN 1046-38 cells. This assay can be conducted as follows:
On day 1, 5×10^5 RIN 1046-38 cells (Drucker, D. J., et al., Proc Natl Acad Sci USA (1987) 84:3434-3438) are seeded into individual wells of 6-well dishes with 2.5 mL M199 culture medium. On day 4, cells are re-fed with fresh medium and on day 5 the assay is performed. […] Assays are only performed on cell passage ≤24.
At time -60 min, monolayers are washed twice with 2.5 mL PBS, and medium is changed to 1.0 mL of DMEM medium plus 4.5 g/l glucose and 0.1% BSA (assay medium). At 0 time, medium is aspirated and fresh assay medium, 1.0 mL, containing test compound is added. Test compound is added in 50 ul volume of PBS plus 0.1% BSA; controls are added in vehicle alone. Incubation is continued for 0 to 60 min.
At termination, conditioned medium and monolayer are harvested to measure both extra- and intracellular cAMP content. For extracellular measurement, medium is removed and centrifuged to remove any cellular debris. For intracellular determination, after medium removal, 1.0 mL of ice cold 95% ethanol is added to monolayer. Cells are collected by scraping, lysed by two cycles of quick freeze/thawing using liquid N2, and cell debris then removed by centrifugation. Aliquots (1/40th well content) of conditioned medium and ethanol cell extract are measured in duplicate for cAMP levels using an RIA kit by the acetylated protocol.
Insulin secretion can also be measured by the method described by Holst, J. J., et al. FEBS Letters (1987) 211:169-174 (supra). Also useful as an assay for insulinotropic effect is the measurement of stimulation of adenylate cyclase in the RIN 1046-38 cell line. Drucker, D. J. et al., Proc Natl Acad Sci USA (1987) 84:3434-3438 (supra).

## CC[C@H](C)[C@H](NC(=O)[C@H](Cc1ccccc1)NC(=O)[C@H](CCC(=O)O)NC(=O)[C@H](CCCCN)NC(=O)[C@H](C)NC(=O)[C@H](C)NC(=O)[C@H](CCC(N)=O)NC(=O)CNC(=O)[C@H](CCC(=O)O)NC(=O)[C@H](CC(C)C)NC(=O)[C@H](Cc1ccc(O)cc1)NC(=O)[C@H](CO)NC(=O)[C@H](CO)NC(=O)[C@@H](NC(=O)[C@H](CC(=O)O)NC(=O)[C@H](CO)NC(=O)[C@@H](NC(=O)[C@H](Cc1ccccc1)NC(=O)[C@@H](NC(=O)CNC(=O)[C@H](CCC(=O)O)NC(=O)[C@H](C)NC(=O)[C@H](CCCCN)NC(C)=O)[C@@H](C)O)[C@@H](C)O)C(C)C)C(=O)N[C@@H](C)C(=O)N[C@@H](Cc1c[nH]c2ccccc12)C(=O)N[C@@H](CC(C)C)C(=O)N[C@H](C(=O)N[C@@H](CCCCN)C(=O)NCC(=O)N[C@@H](CCCNC(=N)N)C(=O)NCC(=O)O)C(C)C [(N-acetyl-K)^7 GLP-1 (7-37)]
[1]
  Resistance to Degradation: +

## CC[C@H](C)[C@H](NC(=O)[C@H](Cc1ccccc1)NC(=O)[C@H](CCC(=O)O)NC(=O)[C@H](CCCCN)NC(=O)[C@H](C)NC(=O)[C@H](C)NC(=O)[C@H](CCC(N)=O)NC(=O)CNC(=O)[C@H](CCC(=O)O)NC(=O)[C@H](CC(C)C)NC(=O)[C@H](Cc1ccc(O)cc1)NC(=O)[C@H](CO)NC(=O)[C@H](CO)NC(=O)[C@@H](NC(=O)[C@H](CC(=O)O)NC(=O)[C@H](CO)NC(=O)[C@@H](NC(=O)[C@H](Cc1ccccc1)NC(=O)[C@@H](NC(=O)CNC(=O)[C@H](CCC(=O)O)NC(=O)[C@H](C)NC(=O)[C@H](Cc1c[nH]cn1)NC(C)C)[C@@H](C)O)[C@@H](C)O)C(C)C)C(=O)N[C@@H](C)C(=O)N[C@@H](Cc1c[nH]c2ccccc12)C(=O)N[C@@H](CC(C)C)C(=O)N[C@H](C(=O)N[C@@H](CCCCN)C(=O)NCC(=O)N[C@@H](CCCNC(=N)N)C(=O)NCC(=O)O)C(C)C [(N-isopropyl-H)^7 GLP-1(7-37), (N-isopropyl-H)^7 -GLP-1(7-37)]
[1]
  Resistance to Degradation: +

## CC[C@H](C)[C@H](NC(=O)[C@H](Cc1ccccc1)NC(=O)[C@H](CCC(=O)O)NC(=O)[C@H](CCCCN)NC(=O)[C@H](C)NC(=O)[C@H](C)NC(=O)[C@H](CCC(N)=O)NC(=O)CNC(=O)[C@H](CCC(=O)O)NC(=O)[C@H](CC(C)C)NC(=O)[C@H](Cc1ccc(O)cc1)NC(=O)[C@H](CO)NC(=O)[C@H](CO)NC(=O)[C@@H](NC(=O)[C@H](CC(=O)O)NC(=O)[C@H](CO)NC(=O)[C@@H](NC(=O)[C@H](Cc1ccccc1)NC(=O)[C@@H](NC(=O)CNC(=O)[C@H](CCC(N)=O)NC(=O)[C@H](C)NC(=O)[C@@H](N)Cc1c[nH]cn1)[C@@H](C)O)[C@@H](C)O)C(C)C)C(=O)N[C@@H](C)C(=O)N[C@@H](Cc1c[nH]c2ccccc12)C(=O)N[C@@H](CC(C)C)C(=O)N[C@H](C(=O)N[C@@H](CCCCN)C(=O)NCC(=O)N[C@@H](CCCNC(=N)N)C(=O)NCC(=O)O)C(C)C [(Q)^9 GLP-1 (7-37)]
[1]
  Resistance to Degradation: -

## HSQGTFTSDYSKYLDGQAAKEFIAWLVKGRG [(S)^8 (Q)^9 (Y)^16 (K)^18 (D)^21 -GLP-1(7-37)]
[1]
  Resistance to Degradation: -

## CC[C@H](C)[C@H](NC(=O)[C@H](Cc1ccccc1)NC(=O)[C@H](CCC(=O)O)NC(=O)[C@H](CCCCN)NC(=O)[C@H](C)NC(=O)[C@H](C)NC(=O)[C@H](CCC(N)=O)NC(=O)CNC(=O)[C@H](CCC(=O)O)NC(=O)[C@H](CC(C)C)NC(=O)[C@H](Cc1ccc(O)cc1)NC(=O)[C@H](CO)NC(=O)[C@H](CO)NC(=O)[C@@H](NC(=O)[C@H](CC(=O)O)NC(=O)[C@H](CO)NC(=O)[C@@H](NC(=O)[C@H](Cc1ccccc1)NC(=O)[C@@H](NC(=O)CNC(=O)[C@H](CCC(=O)O)NC(=O)[C@H](C)NC(=O)[C@H](Cc1c[nH]cn1)NC(=O)[C@H](CCCNC(=N)N)NC(=O)[C@H](CCC(=O)O)NC(=O)[C@@H](N)Cc1ccccc1)[C@@H](C)O)[C@@H](C)O)C(C)C)C(=O)N[C@@H](C)C(=O)N[C@@H](Cc1c[nH]c2ccccc12)C(=O)N[C@@H](CC(C)C)C(=O)N[C@H](C(=O)N[C@@H](CCCCN)C(=O)NCC(=O)N[C@@H](CCCNC(=N)N)C(=O)NCC(=O)O)C(C)C [GLP-1(4-37)]
RIN 1046-38 cells
  ED50 nM Duplicate Assays (first value): 130 nM
  ED50 nM Duplicate Assays (second value): 200 nM

## CC[C@H](C)[C@H](NC(=O)[C@H](Cc1ccccc1)NC(=O)[C@H](CCC(=O)O)NC(=O)[C@H](CCCCN)NC(=O)[C@H](C)NC(=O)[C@H](C)NC(=O)[C@H](CCC(N)=O)NC(=O)CNC(=O)[C@H](CCC(=O)O)NC(=O)[C@H](CC(C)C)NC(=O)[C@H](Cc1ccc(O)cc1)NC(=O)[C@H](CO)NC(=O)[C@H](CO)NC(=O)[C@@H](NC(=O)[C@H](CC(=O)O)NC(=O)[C@H](CO)NC(=O)[C@@H](NC(=O)[C@H](Cc1ccccc1)NC(=O)[C@@H](NC(=O)CNC(=O)[C@H](CCC(=O)O)NC(=O)[C@H](C)NC(=O)[C@@H](N)CCCCN)[C@@H](C)O)[C@@H](C)O)C(C)C)C(=O)N[C@@H](C)C(=O)N[C@@H](Cc1c[nH]c2ccccc12)C(=O)N[C@@H](CC(C)C)C(=O)N[C@H](C(=O)N[C@@H](CCCCN)C(=O)NCC(=O)N[C@@H](CCCNC(=N)N)C(=O)NCC(=O)O)C(C)C [(K)^7 -GLP-1(7-37)]
[1]
  Resistance to Degradation: -

## gastric inhibitory peptide [GIP]
RIN 1046-38 cells; cAMP stimulation in RIN 1046-38 cells, first of duplicate assays
  ED50 nM Duplicate Assays (first value): 10.0 nM
RIN 1046-38 cells; cAMP stimulation in RIN 1046-38 cells, second of duplicate assays
  ED50 nM Duplicate Assays (second value): 37.5 nM

## CC[C@H](C)[C@H](NC(=O)[C@H](Cc1ccccc1)NC(=O)[C@H](CCC(=O)O)NC(=O)[C@H](CCCCN)NC(=O)[C@H](C)NC(=O)[C@H](C)NC(=O)[C@H](CCC(N)=O)NC(=O)CNC(=O)[C@H](CCC(=O)O)NC(=O)[C@H](CC(C)C)NC(=O)[C@H](Cc1ccc(O)cc1)NC(=O)[C@H](CO)NC(=O)[C@H](CO)NC(=O)[C@@H](NC(=O)[C@H](CC(=O)O)NC(=O)[C@H](CO)NC(=O)[C@@H](NC(=O)[C@H](Cc1ccccc1)NC(=O)[C@@H](NC(=O)CNC(=O)[C@H](CCC(=O)O)NC(=O)[C@H](C)NC(=O)[C@H](Cc1c[nH]cn1)NC(=O)[C@H](CCCNC(=N)N)NC(=O)[C@H](CCC(=O)O)NC(=O)[C@H](Cc1ccccc1)NC(=O)[C@H](CCC(=O)O)NC(=O)[C@H](CC(=O)O)NC(=O)[C@@H](N)Cc1c[nH]cn1)[C@@H](C)O)[C@@H](C)O)C(C)C)C(=O)N[C@@H](C)C(=O)N[C@@H](Cc1c[nH]c2ccccc12)C(=O)N[C@@H](CC(C)C)C(=O)N[C@H](C(=O)N[C@@H](CCCCN)C(=O)NCC(=O)N[C@@H](CCCNC(=N)N)C(=O)NCC(=O)O)C(C)C [GLP-1(1-37)]
RIN 1046-38 cells
  ED50 nM Duplicate Assays (first value): > 1000 nM
  ED50 nM Duplicate Assays (second value): 2900 nM

## CC[C@H](C)[C@H](NC(=O)[C@H](Cc1ccccc1)NC(=O)[C@H](CCC(=O)O)NC(=O)[C@H](CCCCN)NC(=O)[C@H](C)NC(=O)[C@H](C)NC(=O)[C@H](CCC(N)=O)NC(=O)CNC(=O)[C@H](CCC(=O)O)NC(=O)[C@H](CC(C)C)NC(=O)[C@H](Cc1ccc(O)cc1)NC(=O)[C@H](CO)NC(=O)[C@H](CO)NC(=O)[C@@H](NC(=O)[C@H](CC(=O)O)NC(=O)[C@H](CO)NC(=O)[C@@H](NC(=O)[C@H](Cc1ccccc1)NC(=O)[C@@H](NC(=O)CNC(=O)[C@H](CCC(=O)O)NC(=O)[C@H](C)NC(=O)[C@H](Cc1c[nH]cn1)NC(=O)[C@H](CCCNC(=N)N)NC(=O)[C@H](CCC(=O)O)NC(=O)[C@H](Cc1ccccc1)NC(=O)[C@@H](N)CCC(=O)O)[C@@H](C)O)[C@@H](C)O)C(C)C)C(=O)N[C@@H](C)C(=O)N[C@@H](Cc1c[nH]c2ccccc12)C(=O)N[C@@H](CC(C)C)C(=O)N[C@H](C(=O)N[C@@H](CCCCN)C(=O)NCC(=O)N[C@@H](CCCNC(=N)N)C(=O)NCC(=O)O)C(C)C [GLP-1(3-37)]
RIN 1046-38 cells
  ED50 nM Duplicate Assays (first value): 70 nM
  ED50 nM Duplicate Assays (second value): 81 nM

## CC[C@H](C)[C@H](NC(=O)[C@H](Cc1ccccc1)NC(=O)[C@H](CCC(=O)O)NC(=O)[C@H](CCCCN)NC(=O)[C@H](C)NC(=O)[C@H](C)NC(=O)[C@H](CCC(N)=O)NC(=O)CNC(=O)[C@H](CCC(=O)O)NC(=O)[C@H](CC(C)C)NC(=O)[C@H](Cc1ccc(O)cc1)NC(=O)[C@H](CO)NC(=O)[C@H](CO)NC(=O)[C@@H](NC(=O)[C@H](CC(=O)O)NC(=O)[C@H](CO)NC(=O)[C@@H](NC(=O)[C@H](Cc1ccccc1)NC(=O)[C@@H](NC(=O)CNC(=O)[C@H](CCC(=O)O)NC(=O)[C@H](C)NC(=O)[C@H](Cc1c[nH]cn1)NC(=O)[C@H](CCCNC(=N)N)NC(=O)[C@@H](N)CCC(=O)O)[C@@H](C)O)[C@@H](C)O)C(C)C)C(=O)N[C@@H](C)C(=O)N[C@@H](Cc1c[nH]c2ccccc12)C(=O)N[C@@H](CC(C)C)C(=O)N[C@H](C(=O)N[C@@H](CCCCN)C(=O)NCC(=O)N[C@@H](CCCNC(=N)N)C(=O)NCC(=O)O)C(C)C [GLP-1(5-37)]
RIN 1046-38 cells
  ED50 nM Duplicate Assays (first value): 150 nM
